Read-outs that look alike come from different tables or passages of the source.
Assays:
[1] = system: Mdr2^−/− mice; assay: First study: dietary supplementation of Mdr2−/− mice (mouse model of human PSC and PFIC) for 17 weeks; conditions: mono-treatment, 0.03% OCA or 1% THBA (w/w) in diet, from 3 to 20 weeks of age, female mice
[2] = system: Mdr2^−/− mice; conditions: mouse, in vivo

Row | SMILES | adverse effects [1] | adverse effects [2] | liver indicator profiles (bilirubin, ALT, ALP, total bile acids in plasma) [1]
1 | CC[C@H]1[C@@H](O)[C@@H]2[C@H](CC[C@]3(C)[C@@H]([C@H](C)CCC(=O)O)CC[C@@H]23)[C@@]2(C)CC[C@@H](O)C[C@@H]12 [OCA, Obeticholic acid, reference compound] | no significant, obvious, adverse effects | – | –
2 | C[C@H](CCC(=O)O)[C@H]1CC[C@H]2[C@@H]3[C@H](O)[C@H](O)[C@@H]4C[C@H](O)CC[C@]4(C)[C@H]3C[C@H](O)[C@]12C [THBA, 3α, 6α, 7α, 12α-tetrahydroxy-5β-cholan-24-oic acid] | – | no significant, obvious, adverse effects | significantly improved liver indicator profiles
